The target in the assay is T1, APOL1 (Homo sapiens, UniProt O14791).
T1 sequence (O14791 1-398 S342G/I384M): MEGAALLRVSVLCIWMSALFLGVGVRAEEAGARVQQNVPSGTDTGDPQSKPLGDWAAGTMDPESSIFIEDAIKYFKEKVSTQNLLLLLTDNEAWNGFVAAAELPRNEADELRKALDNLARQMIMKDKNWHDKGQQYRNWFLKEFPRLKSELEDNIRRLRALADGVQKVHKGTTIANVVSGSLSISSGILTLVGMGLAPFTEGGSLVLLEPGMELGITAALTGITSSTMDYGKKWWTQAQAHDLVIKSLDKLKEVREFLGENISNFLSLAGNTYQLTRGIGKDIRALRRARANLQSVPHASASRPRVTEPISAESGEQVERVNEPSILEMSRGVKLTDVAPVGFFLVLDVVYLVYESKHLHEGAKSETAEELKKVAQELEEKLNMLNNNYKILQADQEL
Description: MultiTox-Fluor Multiplex Cytotoxicity Assay in tet-inducible APOL1 T-REx-HEK293 cells. The format is cell-based. The conditions noted are these: tet-inducible transgenic APOL1 T-REx-HEK293 cells, 50 ng/mL tet, 24 hours; ratio of dead to live cells; APOL1 variant (G0/G1/G2) not stated; read-out: IP50 (nM) (i.e., IC50 for cell proliferation). As for the experimental part:
The MultiTox-Fluor Multiplex Cytotoxicity Assay is a single-reagent-addition, homogeneous, fluorescence assay that measures the number of live and dead cells simultaneously in culture wells. The assay measures cell viability and cytotoxicity by detecting two distinct protease activities. The live-cell protease activity is restricted to intact viable cells and is measured using a fluorogenic, cell-permeant peptide glycyl-phenylalanylamino fluorocoumarin (GF-AFC) substrate. The substrate enters intact cells, where it is cleaved to generate a fluorescent signal proportional to the number of living cells. […] A second, cell-impermeant, fluorogenic peptide substrate (bis-AAF-R^110 Substrate) is used to measure dead-cell protease that has been released from cells that have lost membrane integrity. A ratio of dead to live cells is used to normalize data.
Briefly, the tet-inducible transgenic APOL1 T-REx-HEK293 cell lines were incubated with 50 ng/mL tet to induce APOL1 in the presence of 3-(2-(4-fluorophenyl)-1H-indol-3-yl)-N-((3S,4R)-4-hydroxy-2-oxopyrrolidin-3-yl)propenamide at 10.03, 3.24, 1.13, 0.356, 0.129, 0.042, 0.129, 0.0045, 0.0015, 0.0005 μM in duplicate for 24 hours in a humidified 37° C. incubator. The MultiTox reagent was added to each well and placed back in the incubator for an additional 30 minutes. The plate was read on the EnVision plate reader. A ratio of dead to live cells was used to normalize, and data was imported, analyzed, and fit using Genedata Screener (Basel, Switzerland) software. Data was normalized using percent of control, no tet (100% viability), and 50 ng/mL tet treated (0% viability),and fit using Smart Fit. The reagents, methods, and complete protocol for the MultiTox assay are described below.
Human embryonic kidney (HEK293) cell lines containing a tet-inducible expression system (T-REx™; Invitrogen, Carlsbad, CA) and Adeno-associated virus site 1 pAAVS1-Puro-APOL1 G0 or pAAVS1-Puro-APOL1 G1 or pAAVS1-Puro-APOL1 G2 Clones G0 DC2.13, G1 DC3.25, and G2 DC4.44 were grown in a T-225 flask at ˜90% confluency in cell growth media (DMEM, 10% Tet-free FBS, 2 mM L-glutamine, 100 Units/mL penicillin-streptomycin, 5 μg/mL blasticidin S HCl, 1 μg/mL puromycin dihydrochloride). Cells were washed with DPBS and then trypsinized to dissociate from the flask. Media was used to quench the trypsin, cells were then pelleted at 200 g and resuspended in fresh cell assay media (DMEM, 2% Tet-free FBS, 2 mM L-glutamine, 100 Units/mL penicillin-streptomycin). Cells were counted and diluted to 1.17×10^6 cells/mL. 20 μL of cells (23,400/well) were dispensed in every well of a 384-well Poly-D-Lysine coated plate using the Multidrop dispenser. The plates were then incubated at room temperature for one hour.
Tetracycline is needed to induce APOL1 expression. 1 mg/mL tet stock in water was diluted to 250 ng/mL (5×) in cell assay media. 60 μL of cell assay media (no tet control) was dispensed in columns 1 and 24, and 60 μL of 5× tet in 384-PP-round bottom plate was dispensed in columns 2 to 23 with the Multidrop dispenser.
Assay ready plates from the Global Compound Archive were ordered using template 384_APOL1Cell_DR10n2_50 μM_v3. Compounds were dispensed at 200 nL in DMSO. The final top concentration was 10 μM with a 10 point 3-fold dilution in duplicate in the MultiTox assay.
20 μL was transferred from the 5× tet plate to the ARP and mixed, then 5 μL of 5× tet and the compounds were transferred to the cell plate and mixed using the Bravo. The cell plate was placed in the humidified 37° C. 5% CO2 incubator for 24 hours.
The MultiTox-Fluor Multiplex Cytotoxicity Assay was performed in accordance with the manufacturer's protocol. After cells were incubated with tet and compound for 24 hours, 25 μL of 1× MultiTox reagent was added to each well using the Multidrop dispenser; the plates were placed on a plate shaker (600 rpm) for 2 minutes, then centrifuged briefly and placed back in the 37° C. incubator for 30 minutes. […]

This passage reports IC50 results from US20250163021A1, “2-METHYL-4-PHENYLPIPERIDIN-4-OL DERIVATIVES AS INHIBITORS OF APOL1 AND METHODS OF USING SAME” (Vertex Pharmaceuticals Incorporated, priority 2022, published 2025).

A value given as a limit tells only on which side of the number the result lay.

For the compound `C[C@H]1C[C@@](O)(c2cccc(Cl)c2)CCN1Cc1ccc2c(c1)n(C)c(=O)n2C` [Compound 4], the IC50 was not above 100 nM.

As for `C[C@@H]1C[C@](O)(c2ccccc2)CCN1Cc1ccc2c(c1)n(C)c(=O)n2C` [Compound 3], the IC50 is 500 to 5000 nM.

For `CC(C)n1cc(CN2CC[C@](O)(c3cccc(Cl)c3)C[C@@H]2C)cn1` [Compound 17], the IC50 was 500 to 5000 nM.

As to `C[C@H]1C[C@@](O)(c2ccc(Cl)cc2)CCN1Cc1ccc2c(c1)n(C)c(=O)n2C` [Compound 7], the IC50 is not above 100 nM.

Take `C[C@H]1C[C@@](O)(c2cccc(Cl)c2)CCN1Cc1cnn(C2CCS(=O)(=O)C2)c1` (stereo partly drawn) [Compound 16, (2S,4R)-4-(3-chlorophenyl)-1-[[1-(1,1-dioxothiolan-3-yl)pyrazol-4-yl]methyl]-2-methyl-piperidin-4-ol]: the IC50 fell in the range of 100 to 500 nM.

As to `C[C@H]1C[C@@](O)(c2cccc(C3CC3)c2)CCN1Cc1ccc2c(c1)n(C)c(=O)n2C` [Compound 13], the IC50 is not above 100 nM.

On to `C[C@@H]1C[C@](O)(c2ccc(Cl)c(Cl)c2)CCN1Cc1ccc2c(c1)n(C)c(=O)n2C` [Compound 12], for which the IC50 was 100 to 500 nM.

For `C[C@H]1C[C@@](O)(c2cccc(Cl)c2)CCN1Cc1ccc(C(N)=O)cc1` [Compound 24], the IC50 fell in the range of 100 to 500 nM.

Regarding `Cc1cc(C)cc([C@@]2(O)CCN(Cc3ccc4c(c3)n(C)c(=O)n4C)[C@@H](C)C2)c1` [Compound 15], the IC50 was not above 100 nM.

Take `C[C@H]1C[C@@](O)(c2cccc(Cl)c2)CCN1Cc1cnn(CC(=O)N(C)C)c1` [Compound 20]: the IC50 lay within 100 to 500 nM.

As to `C[C@@H]1C[C@](O)(c2ccc(Cl)cc2)CCN1Cc1ccc2c(c1)n(C)c(=O)n2C` [Compound 10], the IC50 was not above 100 nM.

Turning to `C[C@H]1CC(O)(c2cccc(C(F)(F)F)c2)CCN1Cc1ccc2c(c1)n(C)c(=O)n2C` (some centres unmarked) [Compound 5], the IC50 lay within 100 to 500 nM.

For the compound `C[C@H]1C[C@@](O)(c2cccc(Cl)c2)CCN1Cc1cnn(-c2ccccn2)c1` [Compound 23], the IC50 was not above 100 nM.

Regarding `C[C@@H]1C[C@](O)(c2cccc(F)c2)CCN1Cc1ccc2c(c1)n(C)c(=O)n2C` [Compound 11], the IC50 lay in the range of 100 to 500 nM.

For the compound `Cc1nc(CN2CC[C@](O)(c3cccc(Cl)c3)C[C@@H]2C)c[nH]1` [Compound 26], the IC50 was 500 to 5000 nM.

As for `C[C@H]1C[C@@](O)(c2ccc3c(c2)CCO3)CCN1Cc1ccc2c(c1)n(C)c(=O)n2C` [Compound 14], the IC50 fell in the range of 500 to 5000 nM.

`C[C@H]1C[C@@](O)(c2cccc(Cl)c2)CCN1Cc1ncco1` [Compound 22]: the IC50 was 500 to 5000 nM.

Take `Cc1cccc([C@@]2(O)CCN(Cc3ccc4c(c3)n(C)c(=O)n4C)[C@@H](C)C2)c1` [Compound 1, 5-[[(2S,4R)-4-hydroxy-2-methyl-4-(m-tolyl)-1-piperidyl]methyl]-1,3-dimethyl-benzimidazol-2-one]: the IC50 was 100 to 500 nM.

For the compound `C[C@H]1C[C@@](O)(c2cccc(Cl)c2)CCN1Cc1cnn(CCS(C)(=O)=O)c1` [Compound 21], the IC50 is not above 100 nM.

As for `C[C@H]1C[C@@](O)(c2cc(F)cc(Cl)c2)CCN1Cc1ccc2c(c1)n(C)c(=O)n2C` [Compound 8], the IC50 is not above 100 nM.

On to `C[C@H]1C[C@@](O)(c2ccc(Cl)c(Cl)c2)CCN1Cc1ccc2c(c1)n(C)c(=O)n2C` [Compound 9], for which the IC50 is not above 100 nM.

Turning to `Cc1ncc(CN2CC[C@](O)(c3cccc(Cl)c3)C[C@@H]2C)cn1` [Compound 19], the IC50 fell in the range of 500 to 5000 nM.

For the compound `Cc1ccc(CN2CC[C@](O)(c3cccc(Cl)c3)C[C@@H]2C)nn1` [Compound 18], the IC50 was in the range of 500 to 5000 nM.

Take `C[C@H]1C[C@@](O)(c2ccccc2)CCN1Cc1ccc2c(c1)n(C)c(=O)n2C` [Compound 2]: the IC50 fell in the range of 100 to 500 nM.

For `C[C@H]1C[C@](O)(c2ccc(Cl)cc2)CCN1Cc1ccc2c(c1)n(C)c(=O)n2C` [Compound 6], the IC50 was 500 to 5000 nM.

In the case of `Cc1nc(CN2CC[C@](O)(c3cccc(Cl)c3)C[C@@H]2C)co1` [Compound 25], the IC50 is 500 to 5000 nM.
